Laboratory results from patent US20190083508A1, “USE OF OX1R ANTAGONISTS FOR THE TREATMENT OF INFLAMMATORY BOWEL DISEASES” (Inserm (Institut National De La Sante et de la Recherche …, priority 2014, published 2019).
No end group written: not given here.

Tests used:
OX1R = target: T1, OX1R (Homo sapiens, UniProt O43613); test: Ca2+ mobilization assay in HEK-OX1R cells (FluoForte); format: cell-based
T1 construct: HEK cells expressing recombinant native OX1R (HEK-OX1R); expressed in transfected cells; host or cells: HEK cells (HEK-OX1R)
T1 sequence (O43613 1-425): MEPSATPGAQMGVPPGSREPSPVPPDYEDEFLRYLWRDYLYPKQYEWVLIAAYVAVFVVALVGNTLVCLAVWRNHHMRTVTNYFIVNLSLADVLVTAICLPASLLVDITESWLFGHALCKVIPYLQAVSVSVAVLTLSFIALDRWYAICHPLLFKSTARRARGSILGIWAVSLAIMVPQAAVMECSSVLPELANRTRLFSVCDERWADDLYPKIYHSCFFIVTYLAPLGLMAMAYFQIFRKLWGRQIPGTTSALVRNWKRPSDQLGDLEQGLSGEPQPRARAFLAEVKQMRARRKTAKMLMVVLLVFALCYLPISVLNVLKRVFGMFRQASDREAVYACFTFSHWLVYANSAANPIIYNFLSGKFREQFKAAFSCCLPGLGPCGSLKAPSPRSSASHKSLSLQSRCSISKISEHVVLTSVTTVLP
Method: FIG. 5: Effect of orexin-A and SB408124 antagonist on Ca2+ mobilization in HEK-OX1R cells. Top, HEK-OX1R cells were incubated with fluorescence probe (FluoForte) for 45 min. at 37° C. according to FluoForte calcium assay kit (Enzo Life Sciences). 1 μM of OxA was added to cells and fluorescence emission was measured on TECAN Infinite 200 fluorospectrophotometer. Bottom, HEK-OX1R cells were incubated with fluorescence probe (FluoForte) for 45 min. at 37° C. and then incubated with 1 μM of SB408124 for 1 h at 37° C. After pre-incubation, 1 μM of OxA was added to cells and fluorescence emission was measured.
HEK cells expressing recombinant native OX1R (HEK-OX1R) cells were seeded in 96-wells plate, grown and maintained at 37° C. in a humidified 5% CO2/air incubator. 80,000 cells/well were incubated with FluoForte probe according to FluoForte calcium assay kit (ENZO life Sciences, Farmingdale, N.Y., USA) for 45 min. at 37° C. and then incubated with or without 1 μM of […] antagonist for 1 h at 37° C. After pre-incubation, 1 μM of OxA was added and fluorescence was determined using TECAN Infinite 200 fluorospectrophotometer.

HEK-OX1R cells = test: Cell growth determination, HEK-OX1R cells; format: cell-based; conditions: 48 hr, 0.1 μM OxA or increasing concentrations of SB408124
Method: (§1) FIG. 6: Determination of the inhibition of cellular growth of HEK-OX1R cells and colon adenocarcinoma cells (HT-29) induced by 0.1 μM of OxA or various concentrations of SB408124 antagonist. HEK-OX1R cells (black column) and HT-29 cells (white column) were incubated with 0.1 μM of OxA and indicated increasing concentration of SB408124, and cells were counted after 48 hr incubation. Results are expressed as the percentage of total viable cells.
(§2) HEK-OX1R cells or colon adenocarcinoma HT-29 cells were seeded, grown and maintained at 37° C. in a humidified 5% CO2/air incubator. After 24 hr culture, cells were treated with or without Orexin-A peptide or SB408124 antagonist, previously dissolved in DMSO, to be tested at the concentration indicated in the figure legends. After 48 hr of treatment, adherent cells were harvested by TriplE (Life Technologies, Saint Aubin, France) and manually counted. Apoptosis was determined using the Guava PCA system and the Guava nexin kit.

[1] = system: colon adenocarcinoma HT-29 cells; test: Cell growth determination, HT-29 cells; format: cell-based; conditions: 48 hr, 0.1 μM OxA or increasing concentrations of SB408124
Method: as §1, §2

[2] = system: colon adenocarcinoma HT-29 cells; test: Apoptosis assay (annexin V-PE binding), HT-29 cells; format: cell-based; conditions: 48 h, 1 μM orexin-A or various concentrations of SB408124
Method: FIG. 7: Effect of orexin-A and SB408124 antagonist on apoptosis in OX1R expressing colon adenocarcinoma cells, HT-29. HT-29 cells were challenged with 1 μM orexin-A or various concentration of SB408124 for 48 h. Apoptosis was measured by determination of annexin V-PE binding, and results are expressed as the percentage of apoptotic cells. Results are means±SE of three experiments. ***P<0.001.
as §2

DSS-induced colitis mice [3] = test: DSS-induced colitis mice, Disease Activity Index; format: in vivo, Balb/c mice; conditions: 5% DSS orally 7 days; daily ip 0.22 μmoles/kg
Excerpt: FIG. 2: OXA ameliorates the DAI (weight and colitis score) of DSS-induced colitis mice. Mice were orally treated with 5% DSS for 7 days in the presence or in the absence of daily intraperitoneal injection of OxA (0.22 μmoles/kg). Left, determination of gain or loss of weight in the absence of DSS treatment (Control, ▴), in the presence of DSS treatment (DSS, ▪) and in the presence of DSS associated to OxA treatment (DSS+OxA, ●). Right, evaluation of Disease Activity Index (DAI) scored by measuring weight, length of colon, diarrhea and blood presence in the stool in DSS untreated control mice (Control, ▴), in DSS treated mice (DSS, ▪) and in DSS treated mice associated to OxA treatment (DSS+OxA, ●).
Based on these observations, we have investigated the effect of Orexin A (OxA) on acute inflammation in mice treated with Dextran Sulfate Sodium (DSS). OxA was preferentially chosen in these experiments since the presence of two disulphide bridges confers it more stability. DSS induces acute colitis characterized by weight loss, bloody diarrhea, intestinal ulcerations and infiltrations with granulocytes.
(§3) Balb/c mice were orally treated by 5% (w/v) of Dextran Sulfate Sodium (DSS) for 7 days. […] Weight and colitis symptoms (diarrhea, blood in the stool . . . ) for each mouse was daily measured. […]

DSS-induced colitis mice [4] = test: Cytokine assays in colon extracts of DSS-induced colitis mice; format: in vivo; conditions: daily ip 0.22 μmoles/kg, 7 days
Method: FIG. 3: OXA effects on cytokines secretion in DSS-induced colitis mice. Right, Colons of DSS untreated mice (white), DSS treated mice (gray) and DSS treated mice associated to OxA treatment (black) were resected after animal sacrifice. Then, protein extraction was performed by tissue disruption. Cytokines were determined using Cytokine CBA kits (see Material and Methods). Left, after colon resection, RNA were extracted from colonic tissue and qPCR was performed using specific oligonucleotides for IL8 homolog and IL1B.
These observations are confirmed by histologic aspect of colon epithelium (histologic scoring by a GI pathologist). Thus, OxA has probably an anti-inflammatory effect on DSS-induced colitis. To confirm this hypothesis, we have investigated the anti-inflammatory effect of OxA treatment on cytokines secretion in colon extracts from DSS-treated mice. […] In contrast, OxA has no effect on INFγ, IL10, and IL12 cytokine secretion in colon extracts (FIG. 3).
Balb/c mice were orally treated by 5% (w/v) of Dextran Sulfate Sodium (DSS) for 7 days. Orexin treatment was carried out in DSS treated mice by daily intraperitoneal injection of OxA (0.22 μmoles/kg) for 7 days. Weight and colitis symptoms (diarrhea, blood in the stool . . . ) for each mouse was daily measured. After 7 days of treatment, animals were sacrificed and colons were resected to further analyses (size, histological aspect, cytokine assays). […] mice (IL10^−/− and Nox1^−/−) which develop a spontaneous colitis at 6/7 weeks of age were treated or not with OxA (0.22 μmoles/kg, 2 intraperitoneal injection/week for 21 days). After animal sacrifice colons were resected and histologic analysis was performed.
Mice were sacrificed and colons were resected. Proteins were extracted from colon by tissue disruption in PBS using Tissue Lyser (Qiagen, Courtaboeuf, France). Various cytokines (see FIG. 3) were determined using Cytokine CBA kits (BD Sciences, Le Pont de Claix, France).

EXCY2 mice = test: Spontaneous UC-like colitis in EXCY2 mice (IL10-/-; Nox1-/-), colon histology; format: in vivo; conditions: 10 week-old EXCY2 mice, 0.22 μmoles/kg, 2 IP/week during 3 weeks
Method: FIG. 4: Histological aspect of colon mucosa in OxA treated EXCY2 mice (right) and non-treated EXCY2 mice (left). EXCY2 mice genetically invalidated for IL10 and Nox1 genes (IL10^−/− and Nox1^−/−) which develop spontaneous UC-like disease, were treated with OxA (0.22 μmoles/kg, 2 intraperitoneal injection/week for 21 days) (right) or untreated (left). After animal sacrifice colons were resected and histologic analysis was performed.
DSS mouse model has been extensively used to decipher the mucosal inflammation in IBD, UC pathogenesis, and preclinical studies. However, mice show differential susceptibilities and responsiveness to DSS-induced colitis depending on their genetic background, gender. DSS model is a faithful model of inflammation but departs from Ulcerative Colitis in part for lack of the inflammation gradient from the rectum to the proximal colon usually observed in UC, any deregulation of ER stress in goblet cells known to be an early etiological factor of UC, and no digestive or extra-digestive complications of UC such as cholangitis and colorectal cancer, respectively. The use of genetically modified mice model represents a good alternative to chemically-induced colitis mice model. […]
as §3

DSS-treated mice = test: Length of colon from DSS-treated mice mimicking acute ulcerative colitis; format: in vivo; conditions: 5% DSS in drinking water; daily ip 20 μg; one week
Method: FIG. 8: Effect of daily ip inoculation of OxA, Suvorexant and Almorexant on the length of colon from DSS- (dextran sulfate sodium) treated mice mimicking the acute ulcerative colitis disease. A. Mice were treated with 5% (w/v) DSS in drinking water and daily injected with 20 μg of OxA (OXA IP), 20 μg of Suvorexant (Suvo) or 20 μg of Almorexant (Almo). Control (wt) or treated DSS mice (DSS) were daily injected with 100 μl PBS. After one week of treatment, mice were sacrificed and the length of colon which represented a good marker of inflammation state, was measured. […] B. quantification of colon length from 5 different DSS-treated mice injected with OxA (DSS+OXA IP), Almorexant (DSS+Almo), Suvorexant (DSS+Suvo) or not injected (WT and DSS). NS, no significant; *, p<0.05; ** p<0.001
The inventors also investigated the effect of daily intraperitoneal inoculation of OxA, Suvorexant and Almorexant on the length of colon from DSS- (dextran sulfate sodium) treated mice mimicking the acute ulcerative colitis disease.

Compound: Cc1cc(NC(=O)Nc2ccc(N(C)C)cc2)c2cc(F)cc(F)c2n1 [SB408124]
- Effect on OxA-induced Ca2+ mobilization (antagonist effect) (OX1R; 1 μM preincubation 1 h, then 1 μM OxA): totally abolished the induced-Ca^2+ mobilization
- Inhibition of cellular growth (HEK-OX1R cells): induced also a strong inhibition in a dose-dependent manner of cellular growth
- Inhibition of cellular growth [1]: induced also a strong inhibition in a dose-dependent manner of cellular growth
- Apoptosis (annexin V-PE binding) [2]: able to induce in a dose-dependent manner cell apoptosis

Compound: OxA: Orexin A peptide with two disulphide bridges, agonist of OX1R (QPLPDCCRQKTCSCRLYELLHGAGNHAAGILTL; disulfide (positions not given here); ends not checked; also: two disulphide bridges, places not given here; UniProt O43612 34-66, looked up)
- Disease Activity Index (DAI) scored by weight, length of colon, diarrhea and blood in the stool (DSS-induced colitis mice [3]): ameliorates
- IL6 secretion in colon extracts (DSS-induced colitis mice [4]): reduces the secretion
- IL10 secretion in colon extracts (DSS-induced colitis mice [4]): has no effect
- IL12 secretion in colon extracts (DSS-induced colitis mice [4]): has no effect
- INFγ secretion in colon extracts (DSS-induced colitis mice [4]): has no effect
- TNFα secretion in colon extracts (DSS-induced colitis mice [4]): reduces the secretion
- IL1B in colon extracts (DSS-induced colitis mice [4]; qPCR per FIG. 3): reduces the secretion
- IL8 homolog in colon extracts (DSS-induced colitis mice [4]; qPCR per FIG. 3): reduces the secretion
- Effect on severe spontaneous colitis (EXCY2 mice): alleviated severe colitis
- Histological aspect of colonic mucosa (crypts aspect, crypt size, goblet cells, immune cells infiltration) (EXCY2 mice; vs vehicle treated): exhibited a normal colonic mucosa
- Ca2+ mobilization (agonist effect) (OX1R; 1 μM): induced a large and transient Ca^2+ mobilization
- Inhibition of cellular growth (HEK-OX1R cells): induced a strong inhibition of cellular growth
- Inhibition of cellular growth [1]: induced a strong inhibition of cellular growth
- Apoptosis (annexin V-PE binding) [2]: induced an apoptotic effect
- Protection from DSS induced acute ulcerative colitis (colon length) (DSS-treated mice): protect mice from DSS induced acute ulcerative colitis disease

Compound: CNC(=O)[C@@H](c1ccccc1)N1CCc2cc(OC)c(OC)cc2[C@@H]1CCc1ccc(C(F)(F)F)cc1 [Almorexant]
- Protection from DSS induced acute ulcerative colitis (colon length) (DSS-treated mice): protect mice from DSS induced acute ulcerative colitis disease

Compound: Cc1ccc(-n2nccn2)c(C(=O)N2CCN(c3nc4cc(Cl)ccc4o3)CC[C@H]2C)c1 [Suvorexant]
- Protection from DSS induced acute ulcerative colitis (colon length) (DSS-treated mice): protect mice from DSS induced acute ulcerative colitis disease
